Assay results as given in patent publication US20080171350A1, “Neural Cell Differentiation Method From Es Cells” (NOVARTIS FORSCHUNGSSTIFTUNG, ZWEIGNIEDERLASSUNG FRIEDRICH …, priority 2004, published 2008).

System: ES cells-derived neurons
Assay: Whole-cell patch-clamp recordings on ES cells-derived neurons
Format: cell-based, mouse
Conditions: cells in culture for 10 and up to 22 days

## NS(=O)(=O)c1cccc2c1c([N+](=O)[O-])cc1nc(O)c(O)nc12 [NBQX]
  block of spontaneous synaptic currents (SSCs): blocking of synaptic currents
